Measurements reported in patent US8084459B2, “Substituted quinazolinones for treating neurological conditions” (Prana Biotechnology Ltd, priority 2004, dated 2011).

Key:
[1] = target: T1, Aβ 1-42 (Homo sapiens, UniProt P05067); experiment: Assay 1 Fluorometric H2O2 assay (peroxide); format: biochemical; conditions: inhibition of H2O2 generation by Aβ with copper
T1 construct: The reaction solutions contained Aβ 1-42 at concentrations
How it was run: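 DCF fluorescence (ex 485/em 530 nm) after 60 min at 37 °C in PBS pH 7.4; Aβ 1-42 (50 nM–1 μM) with Cu-Gly (2:1 to Aβ), dopamine 5 μM or ascorbate, deacetylated DCF 100 μM, HRP 0.1 μM, and test compound. H2O2 quantified against H2O2 standards.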

[2] = system: Aβ1-42 toxicity in neuronal cortical cells; experiment: Assay 3(c) Aβ neurotoxicity and neuroprotection (MTS); format: cell-based, mouse; conditions: 20 uM Aβ1-42, cortical neurons, 4 days
Procedure: Primary Cortical Neuronal Cultures
Cortical cultures were prepared as previously described (White et al., 1998). Embryonic day 14 BL6Jx129sv mouse cortices were removed, dissected free of meninges and dissociated in 0.025% (wt/vol) trypsin. Dissociated cells were plated in 48 well culture plates at a density of 2×10^6 cells/mL in MEM with 25% (vol/vol) FCS and 5% (vol/vol) HS and incubated at 37° C., 2 hrs. Media was then replaced with Neurobasal media (Invitrogen Life Technologies) and B27 supplements (Invitrogen Life Technologies). Cultures were maintained at 37° C. in 5% CO2. Prior to experimentation, the culture medium was replaced with Neurobasal media and B27 minus antioxidants (Invitrogen Life Technologies).
(c) Assay for Aβ Neurotoxicity and Aβ Neuroprotection
Neuronal cortical cells were cultured for five days as per Assay 2. On day six the neurobasal (NB) media (Invitrogen Life Technologies) and B27 supplement (Invitrogen Life Technologies) were replaced with NB media and B27 supplement (no antioxidants). On day six, test compounds were individually added to the neuronal cell cultures:
(§1) The test compounds were dissolved in 100% DMSO to a concentration of 2.5 mM (10 mM if excess compound was weighed out per vial—then diluted to 2.5 mM). 2.5 mM stock solution was serially diluted 1 in 10 to give working solutions of 250 uM, 25 uM, 2.5 uM.
Aβ was initially dissolved in 20 mM NaOH to a concentration of 1 mM and sonicated for 5 minutes. The peptide was then diluted in H2O and 10×PBS to a final concentration of 200 uM Aβ in 1× PBS. The peptide was again sonicated for 5 minutes and then spun at 14000 rpm for 5 min and transferred to a fresh tube.
as §1, with “in 10 [in NB media and B27 (no antioxidants)] to give” for “in 10 to give”, “2.5 uM. Test compounds were not added directly to cells, instead they were added to a 48 well ‘Drug Plate’ as comprised below:” for “2.5 uM.”
Preparation of “Drug Plate”:
Well 1: 515 ul NB+B27 (no antioxidant)*+24 ul 25 uM test compound+60 ul Aβ diluent**
Well 2: 515 ul NB+B27 (no antioxidant)+24 ul 250 uM test compound+60 ul Aβ diluent
Well 3: 515 ul NB+B27 (no antioxidant)+24 ul test compound diluent***+60 ul Aβ1-42
Well 4: 515 ul NB+B27 (no antioxidant)+24 ul 2.5 uM test compound+60 ul Aβ1-42
Well 5: 515 ul NB+B27 (no antioxidant)+24 ul 25 uM test compound+60 ul Aβ1-42
Well 6: 515 ul NB+B27 (no antioxidant)+24 ul 250 uM test compound+60 ul Aβ1-42 diluent
Well 7: 515 ul NB+B27 (no antioxidant)+24 ul test compound diluent+60 ul Aβ1-42 diluent
Well 8: 600 ul NB+B27 (no antioxidant)
The Drug Plate was incubated at 37° C. for 15 mins. 200 ul of each well was added in triplicate to the corresponding cell plate. The cell plate was incubated at 37 C, for 4 days.
* NB media+B27 (no antioxidants)
** Aβ diluent 2 mM NaOH, 1×PBS
*** PBT diluent 10% DMSO in NB+B27 (no antioxidant)
On the 4th day after treating the cells the assay is completed by adding MTS to the cells.

T1 sequence (P05067 672-713 limits assumed): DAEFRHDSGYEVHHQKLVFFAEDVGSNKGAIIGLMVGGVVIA

Row | IC50 [1] [µM] | Compound | Assay 3(c) Neuroprotection (% inhibition of Abeta toxicity) [2] [%]
1 | 0.48 | O=c1c2c(Cl)cc(Cl)c(O)c2ncn1Cc1ccccn1 [Compound 1077] | –
2 | 0.36 | Cc1nc(Cn2cnc3c(O)c(Cl)cc(Cl)c3c2=O)cs1 [Compound 1084] | 2
3 | 0.37 | Cc1noc(C)c1Cn1cnc2c(O)c(Cl)cc(Cl)c2c1=O [Compound 1085] | 7

Second part, the compound before the results:

Row | Compound | IC50 [1] [µM] | Assay 3(c) Neuroprotection (% inhibition of Abeta toxicity) [2] [%]
4 | O=c1c2c(Cl)cc(Cl)c(O)c2ncn1CCN1CCCC1 [Compound 1075] | 0.73 | –
5 | Br.CCCn1cnc2c(O)c(Cl)cc(Cl)c2c1=O [Compound 1097] | 0.28 | –
